# Experimental data: ChEMBL document CHEMBL2385011, “Optimization of a 1,5-dihydrobenzo[b][1,4]diazepine-2,4-dione series of HIV capsid assembly inhibitors 1: addressing configurational instability through scaffold modification” (Bioorg Med Chem Lett, 2013)
# How the values were obtained:
# [1] = Cytotoxicity against human C8166 cells; type: cell-based
# [2] = test system: Human immunodeficiency virus 1; experiment: Antiviral activity against HIV1 infected in human C8166 cells expressing LTR after 3 days by luciferase reporter gene assay; type: functional, organism-based; conditions: Human immunodeficiency virus 1, C8166, 72 h
# [3] = biological target: Structural capsid protein (Human immunodeficiency virus 1, UniProt Q76129); experiment: Inhibition of HIV1 capsid-nucleocapsid assembly expressed in Escherichia coli BL21(DE3) after 2 hrs by fluorescence assay
# [4] = biological target: Structural capsid protein (Human immunodeficiency virus 1) (UniProt Q76129); experiment: Inhibition of HIV1 capsid-nucleocapsid assembly expressed in Escherichia coli BL21(DE3) at 3.5 uM after 2 hrs by fluorescence assay relative to control
# Structural capsid protein (Human immunodeficiency virus 1), sequence (Q76129 as listed by the source): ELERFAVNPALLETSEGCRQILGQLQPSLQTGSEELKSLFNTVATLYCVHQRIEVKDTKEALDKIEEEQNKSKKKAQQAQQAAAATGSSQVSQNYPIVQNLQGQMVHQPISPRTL
# Structural capsid protein, sequence (Q76129 whole entry): as the sequence (Q76129 as listed by the source) above
SMILES,CC50 [1] [µM],EC50 [2] [µM],IC50 [3] [µM],inhibition [4] [%]
CCN1C(=O)N(c2cccc(OC)c2)C(=O)N(c2ccccc2)c2cc(C(F)(F)F)ccc21,> 20,1.2,0.21,
CCN1C(=O)N(c2ccc(C)cc2)C(=O)N(c2ccccc2)c2cc(C(F)(F)F)ccc21,> 6.5,0.54,0.19,
CCN1C(=O)C2(CCc3ccc(O)cc32)C(=O)N(c2ccccc2)c2cc(C(F)(F)F)ccc21 (stereo unspecified),> 27,1.2,0.59,
CCN1C(=O)C2(CCc3ccccc32)C(=O)N(c2ccccc2)c2cc(C(F)(F)F)ccc21 (stereo unspecified),> 16,1.6,0.46,
CCN1C(=O)N(c2ccc(O)c(C)c2)C(=O)N(c2ccccc2)c2cc(C(F)(F)F)ccc21,17,0.26,0.09,
CCN1C(=O)C2(CC(C(C)C)c3cc(O)ccc32)C(=O)N(c2ccccc2)c2cc(C(F)(F)F)ccc21 (stereo unspecified),,,1.1,
CCN1C(=O)C2(CCc3c(O)cccc32)C(=O)N(c2ccccc2)c2cc(C(F)(F)F)ccc21 (stereo unspecified),> 21,0.78,0.24,
CCN1C(=O)C2(CC(=O)c3cc(O)ccc32)C(=O)N(c2ccccc2)c2cc(C(F)(F)F)ccc21 (stereo unspecified),,,1.5,
CCN1C(=O)C(c2ccccc2)C(=O)N(c2ccccc2)c2cc(C(F)(F)F)ccc21 (stereo unspecified),,2.6,0.73,
CCN1C(=O)N(c2ccc(O)cc2)C(=O)N(c2ccccc2)c2cc(C(F)(F)F)ccc21,35,0.38,0.05,
CCN1C(=O)C2(CC(O)c3cc(O)ccc32)C(=O)N(c2ccccc2)c2cc(C(F)(F)F)ccc21 (stereo unspecified),,,2.1,
CCN1C(=O)N(c2ccccc2)C(=O)N(c2ccccc2)c2cc(C(F)(F)F)ccc21,> 4,0.6,0.63,
CN1C(=O)C(c2ccccc2)C(=O)N(c2ccccc2)c2cc(C(F)(F)F)ccc21 (stereo unspecified),,,0.68,
CCN1C(=O)N(c2cccc(C(=O)NCCN3CCOCC3)c2)C(=O)N(c2ccccc2)c2cc(C(F)(F)F)ccc21,> 19,1.1,0.22,
CN1C(=O)C2(CCc3cc(N)ccc32)C(=O)N(c2ccccc2)c2cc(C(F)(F)F)ccc21 (stereo unspecified),> 15,0.41,0.16,
CN1C(=O)C(C)(c2ccccc2)C(=O)N(c2ccccc2)c2cc(C(F)(F)F)ccc21 (stereo unspecified),,,,8
CCN1C(=O)C2(CCc3cc(O)ccc32)C(=O)N(c2ccccc2)c2cc(C(F)(F)F)ccc21 (stereo unspecified),32,0.69,0.21,
CN1C(=O)C2(CCc3cc(NC(=O)[C@@H]4CCCN4)ccc32)C(=O)N(c2ccccc2)c2cc(C(F)(F)F)ccc21 (stereo partly specified),11,0.52,0.11,
CCN1C(=O)N(c2ccc(OC)cc2)C(=O)N(c2ccccc2)c2cc(C(F)(F)F)ccc21,> 16,0.72,0.18,
CCN1C(=O)N(c2cccc(C(=O)NC)c2)C(=O)N(c2ccccc2)c2cc(C(F)(F)F)ccc21,> 22,1.2,0.28,
CCN1C(=O)C2(CCc3cc(OC)ccc32)C(=O)N(c2ccccc2)c2cc(C(F)(F)F)ccc21 (stereo unspecified),> 4,0.51,0.16,
CCN1C(=O)C2(CC(N)c3cc(O)ccc32)C(=O)N(c2ccccc2)c2cc(C(F)(F)F)ccc21 (stereo unspecified),,,3.6,
CCN1C(=O)C2(CC(C)c3cc(O)ccc32)C(=O)N(c2ccccc2)c2cc(C(F)(F)F)ccc21 (stereo unspecified),,,0.29,
CCN1C(=O)N(c2ccc(C(=O)NC)cc2)C(=O)N(c2ccccc2)c2cc(C(F)(F)F)ccc21,31,0.48,0.13,
CCN1C(=O)N(c2cc(C)c(O)c(Cl)c2)C(=O)N(c2ccccc2)c2cc(C(F)(F)F)ccc21,> 10,0.15,0.06,
CCC1CC2(C(=O)N(CC)c3ccc(C(F)(F)F)cc3N(c3ccccc3)C2=O)c2ccc(O)cc21 (stereo unspecified),,,0.73,
